Measurements: US20170196998A1, “NANOPARTICLE CONTRAST AGENT FOR EARLY DIAGNOSIS OF ALZHEIMER'S DISEASE BY MAGNETIC RESONANCE IMAGING (MRI)” (The Chinese University of Hong Kong, priority 2016, published 2017)

Tests used:
amyloid plaques = amyloid plaques (Homo sapiens, UniProt P05067); test: Confocal fluorescent and phase-contrast imaging of amyloid plaque binding on consecutive brain sections; conditions: applied to consecutive sections of APP transgenic mouse brain, FIG. 5
Excerpt: From top to bottom: Thioflavin T, curcumin, and curcumin-conjugated iron oxide.
The formulation of Curcumin-conjugated magnetic nanoparticles is described herein.

[1] = Adsorption isotherm of curcumin on iron oxide (Langmuir model); type: physicochemical; conditions: room temperature, monolayer
Description: Based on the absorption isotherm study, curcumin preferentially binds the iron oxide surface, with a calculated maximum loading of 75 mg of curcumin per gram of iron oxide. FIGS. 2 & 3 show the adsorption isotherm and Langmuir model, which indicate that Curcumin is forming a monolayer and binds at a homogeneous site on the iron oxide surface.

Chain of amyloid plaques (P05067 672-713 limits assumed): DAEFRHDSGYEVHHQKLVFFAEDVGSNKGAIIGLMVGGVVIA

| calculated maximum loading of curcumin on iron oxide [1] | Structure (SMILES) | amyloid plaque binding (amyloid plaques) |
| --- | --- | --- |
| 75 mg of curcumin per gram of iron oxide | COc1cc(/C=C/C(=O)CC(=O)/C=C/c2ccc(O)c(OC)c2)ccc1O [curcumin] | bind amyloid plaques |
| – | Cc1ccc2c(c1)sc(-c1ccc(N(C)C)cc1)[n+]2C.[Cl-] [Thioflavin T] | bind amyloid plaques |
